Molecules are shown by their SMILES.

Results on 1 compound are retold here after ChEMBL document CHEMBL1806468, “A facile synthesis of 1,5-disubstituted-2-aminoimidazoles: antibiotic activity of a first generation library” (2011).

One assay concerns Klebsiella pneumoniae. The experiment in a line: Antimicrobial activity against carbapenem-resistant Klebsiella pneumoniae BAA-2146 expressing […] gene after 16 hrs by broth microdilution method. The class given is functional. The following applies: BAA-2146, 16 h. For orientation: Broth dilution looks for growth in wells or tubes with falling amounts of substance.
The subject of assay [1] is Staphylococcus epidermidis. The experiment in a line: Antimicrobial activity against Staphylococcus epidermidis ATCC 29886 after 16 hrs by broth microdilution method. The class given is functional. The following applies: ATCC 29886, 16 h.
For assay [2], the system named is Staphylococcus aureus. The assay can be described thus: Inhibition of Staphylococcus aureus ATCC 29213 biofilm formation after 24 hrs by crystal violet reporter assay. The class given is functional. For orientation: A reporter such as luciferase makes a cellular process visible.
In assay [3] the test system is Staphylococcus epidermidis. The assay can be described thus: Antimicrobial activity against methicillin-resistant Staphylococcus epidermidis ATCC 51625 after 16 hrs by broth microdilution method. The following applies: ATCC 51625, 16 h. The assay is classed as functional.
In assay [4] the test system is Escherichia coli. The experiment in a line: Inhibition of Escherichia coli ATCC 35695 biofilm formation after 24 hrs by crystal violet reporter assay. The assay is classed as functional.
The subject of assay [5] is Acinetobacter baumannii. The assay can be described thus: Antimicrobial activity against multidrug-resistant Acinetobacter baumannii BAA-1605 after 16 hrs by broth microdilution method. The assay is classed as functional. The following applies: BAA-1605, 16 h.
Assay [6] concerns Staphylococcus aureus. The experiment in a line: Inhibition of Staphylococcus aureus BAA-44 biofilm formation after 24 hrs by crystal violet reporter assay. The class given is functional.
The test system of assay [7] is Acinetobacter baumannii. The assay can be described thus: Antimicrobial activity against Acinetobacter baumannii ATCC 19606 after 16 hrs by broth microdilution method. The class given is functional. The following applies: ATCC 19606 = CIP 70.34 = JCM 6841, 16 h.
Assay [8] deals with Staphylococcus aureus. The experiment in a line: Antimicrobial activity against methicillin-susceptible Staphylococcus aureus ATCC 29213 after 16 hrs by broth microdilution method. The class given is functional. The following applies: ATCC 29213, 16 h.
The test system of assay [9] is Staphylococcus aureus. The assay can be described thus: Antimicrobial activity against methicillin-resistant Staphylococcus aureus BAA-44 after 16 hrs by broth microdilution method. The assay is classed as functional. The following applies: BAA-44, 16 h.
Assay [10] concerns Acinetobacter baumannii. The experiment in a line: Inhibition of Acinetobacter baumannii BAA-1605 biofilm formation after 24 hrs by crystal violet reporter assay. The class given is functional.
Assay [11] deals with Escherichia coli. The experiment in a line: Antimicrobial activity against Escherichia coli ATCC 35695 after 16 hrs by broth microdilution method. The following applies: ATCC 35695, 16 h. The class given is functional.
In assay [12] the test system is Acinetobacter baumannii. The experiment in a line: Inhibition of Acinetobacter baumannii ATCC 19606 biofilm formation after 24 hrs by crystal violet reporter assay. The assay is classed as functional, ATCC 19606 = CIP 70.34 = JCM 6841.

Usually MIC stands for the lowest concentration found to suppress growth. High values mean weaker potency, low ones greater potency. Turning to `Cl.Nc1ncc(-c2ccccc2)n1CCCc1ccccc1`, the minimum inhibitory concentration (MIC) stood at 128 µg/mL against Klebsiella pneumoniae; 8 µg/mL in [1]; 32 µg/mL in assay [3]; 32 µg/mL with Acinetobacter baumannii [5]; 32 µg/mL in the assay on Acinetobacter baumannii [7]; 32 µg/mL in the assay on Staphylococcus aureus [8]. In addition, the minimal inhibitory concentration (MIC) in the assay with Staphylococcus aureus [9] and in the assay with Escherichia coli [11] was 32 µg/mL in each case. Moreover, the “inhibition (INH)” value worked out at 95% with Staphylococcus aureus [2]; 94% in the assay with Escherichia coli [4]; 94% in the assay with Staphylococcus aureus [6]; 97% in the assay with Acinetobacter baumannii [10]; 97% in the assay on Acinetobacter baumannii [12].
